Data as given in patent US9850227B2 (YUHAN CORPORATION, priority 2011, dated 2017).

Target: T1, human 5-HT4(a) (Homo sapiens, UniProt Q13639)
T1 construct: host or cells: GeneBIAzer HTR4-CRE-bla CHO-K1 cells
Experiment: Evaluation of agonistic activity in CHO-K1 cells expressing human 5-HT4(a) (GeneBIAzer HTR4-CRE-bla CHO-K1 cells, beta-lactamase fluorescence ratio, EC50 from 8 concentrations)
Format: cell-based
Procedure, shortened: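 HTR4-CRE-bla CHO-K1 cells (10^4 per well, overnight in 1% FBS medium) exposed to compound for 5 h, then beta-lactamase substrate 2 h in the dark. Fluorescence ratio at 465/535 nm after 410 nm excitation; EC50 by non-linear regression over 8 concentrations.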

T1 sequence (Q13639 1-387 isoform Q13639-2): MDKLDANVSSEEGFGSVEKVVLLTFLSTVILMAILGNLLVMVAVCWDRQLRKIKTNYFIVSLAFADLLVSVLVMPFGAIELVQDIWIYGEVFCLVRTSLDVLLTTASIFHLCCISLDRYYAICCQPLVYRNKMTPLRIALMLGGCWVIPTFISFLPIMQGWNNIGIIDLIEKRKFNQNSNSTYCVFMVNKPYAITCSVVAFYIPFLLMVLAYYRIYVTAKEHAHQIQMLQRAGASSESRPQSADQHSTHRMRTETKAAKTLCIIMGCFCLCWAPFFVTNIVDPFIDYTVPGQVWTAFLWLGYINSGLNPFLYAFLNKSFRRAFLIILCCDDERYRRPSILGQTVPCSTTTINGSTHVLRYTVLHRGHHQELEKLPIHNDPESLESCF

| EC50 [nM] | Compound |
| --- | --- |
| 0.15 | CCCc1cc(N2CCCCC2)nc(Nc2ccc(C)c([N+](=O)[O-])c2)n1 [Example 47, N-(4-methyl-3-nitrophenyl)-4-(piperidin-1-yl)-6-propylpyrimidin-2-amine] |
| 0.024 | CCCc1cc(N2CCNC[C@H]2C)nc(Nc2ccc3cc[nH]c3c2)n1 [Example 118, (R)-N-[4-(2-methylpiperazin-1-yl)-6-propylpyrimidin-2-yl]-1H-indol-6-amine] |
| 0.039 | CCCc1cc(N2CCCCC2CCO)nc(Nc2ccc(C)c([N+](=O)[O-])c2)n1 (stereo not drawn) [Example 174, 2-{1-[2-(4-methyl-3-nitrophenylamino)-6-propylpyrimidin-4-yl]piperidin-2-yl}ethanol] |
